These results are taken from patent US5786332A, “Cytokine restraining agents and methods of use in pathologies and conditions associated with altered cytokine levels” (Trega Biosciences, Inc., priority 1995, dated 1998).

Common to all, as to type: in vivo
One experiment deals with IL-6. As to the kind of experiment: Reduction of LPS-induced Interleukin-6 levels in mice (ELISA). The settings on record: 300 μg/mouse; LPS-treated mice vs untreated control. On the procedure: Balb/c mice were grouped and treated as described in Example III, above. Blood samples were obtained from the orbital sinus at various times up to six hr and serum was collected and diluted as described above. A 100 μl aliquot was assayed for IL-6 levels using an IL-6-specific ELISA by a modification of the method of Starnes et al., J. Immunol. 145:4185-4194 (1990), which is incorporated herein by reference.
The mean (+/-SEM) IL-6 level in six mice from each group was determined and the percent reduction in IL-6 was calculated.
(In an ELISA, binding on a coated surface is turned into a signal by an enzyme label.)

A further experiment has as its system TNF-α. As to the kind of experiment: Reduction of LPS-induced TNF levels in mice (IP dosing, ELISA). Conditions: 30 μg/mouse IP; LPS 5 mg/kg IP; vs untreated control mice. On the procedure:
Balb/c female mice weighing approximately 20 g were placed into two groups, a control group and a treated group. Five mg/kg of LPS in 0.9% saline was administered by intraperitoneal (IP) injection into the control mice. Mice in the treated group were first injected IP with 30 μg EX-2 or 150 μg EX-3 in saline, then, one mn after EX-2 or EX-3 was administered, the mice received LPS as described for the control group.
Blood samples were collected from the orbital sinus of treated and control mice at various times up to four hr after LPS was administered. The plasma was separated by centrifugation at 3000×g for 5 min, then diluted with four volumes of 1× phosphate buffer saline (pH 7.4) containing 1% bovine serum albumin. A 100 μl sample of serum was assayed by ELISA for TNF-α (Genzyme; Cambridge Mass.).
The mean (+/-SEM) TNF-α level in six mice from each group was determined and the percent reduction in TNF levels was calculated.

Experiment [1] has as its system Sprague-Dawley rats. As to the kind of experiment: Streptozotocin-induced diabetes, plasma glucose. The settings on record: STZ 65 mg/kg iv; EX-2 150 μg/kg every 8 hr for 72 hr. On the procedure:
B. Induced Diabetes: Male Sprague-Dawley rats were given 65 mg/kg of streptozotocin (STZ) intravenously through the tall vein. Rats were divided into two groups. The first group was administered EX-2, 150 μg/kg every 8 hr for 72 hr and the second group was a control. Blood samples were withdrawn under ether anesthesia every 8 hr for the first 72 hr, then every 12 hr or 24 hr until the end of the observation period. Plasma samples were assayed for glucose using a glucose assay kit (Trinder, Sigma Chemical Co.). As shown in Table VI below EX-2 effect a 72% reduction in blood glucose levels.

Experiment [2] deals with Sprague-Dawley rats. As to the kind of experiment: Renal ischemia-reperfusion injury. Conditions: I/R + EX-2 (50 or 500 μg/kg iv, not specified). On the procedure:
A. Ischemia-Reperfusion Injury: These experiments were performed to determine if a peptide which has cytokine restraining properties, EX-2, can ameliorate the reperfusion-induced vasoconstriction and reduction in glomerular filtration rate that results from clamping of the renal artery. As a comparison, the NSAID ketorolac was utilized in the same model.
Sprague-Dawley rats (250-300 g) were anesthetized with Inactin® (120 mg/kg). After deep anesthesia was assured, the rats were cannulated in the trachea with polyethylene (PE) tubing (PE 240), jugular vein, femoral artery, bladder (PE 50 for previous 3 cannulations), and left ureter (stretched PE 50). Once cannulation was completed, a 2 cm flank incision above the left kidney was performed and the renal pelvis and vascular bundle were exposed. […]
Just prior to clamping, EX-2 (50 or 500 μg/kg), ketorolac (KETO, 1 mg/kg), or vehicle was administered intravenously (iv) After 1 hr of clamping (ischemia), the clamp was gently removed with care taken to avoid damaging either the renal artery or nerves. […] After 60 min of reperfusion, glomerular filtration rate (GFR), renal plasma flow (RPF) and renal vascular resistance (RVR) were assessed in two 30 min collection periods. […] Contralateral renal function was utilized to determine the stability of the rat's renal function during the measured period.

The test system of experiment [3] is Sprague-Dawley rats. As to the kind of experiment: Disuse deconditioning (tail suspension, 14 days). Conditions: 1 or 5 μg/kg IP twice daily. Here is the method:
Adult male Sprague-Dawley rats (355-365 g) were used in this study. Animals were housed individually in standard rat cages and were acclimated on a treadmill for 4 days. The next day, a baseline tail bleed was performed, followed by a maximal treadmill stress test the day after. The day following the stress test, the animals were divided into the appropriate treatment and control groups and the animals were suspended by their tails in suspension cages, which simulates weightlessness and, therefore, deconditions the animals. Another group of control animals was placed in standard rat cages with grated flooring similar to that utilized in the suspension cages. All animals were housed one per cage and supplied with food and water ad libitum. Body weights and food consumptions were measured daily. Animals received twice daily IP injections of 1 μg/kg or 5 μg/kg body weight of EX-2 (treated), or 1 ml/kg body weight of saline (control). On day 10, all animals were stress tested on the treadmill until they reached exhaustion. Data on maximum VO2 and running time were collected and compared to pre-suspension results. On day 14, all animals were sacrificed, and blood, tissues, and organs were collected for further analysis. All procedures and tests were performed blind to avoid researcher subjectivity. Statistical significance (p<0.05) between groups was evaluated by ANOVA with Student-Newman-Keuls test for multiple comparisons. All data are reported as the mean ± standard error (SE).
All of the animals were subjected to the stress tests, which measured exercise time and maximal VO2. As well, levels of the oxidative enzyme soleus citrate synthase and tibia bone density were measured.
Soleus citrate synthase was attenuated by 50%.

As for “Ac-Nle-Gln-His-(D)Phe-Arg-(D)Trp-Gly-NH2 [EX-2]”, in the experiment with IL-6, the “Reduction in IL-6 levels” value stood at 60%. Moreover, the “Reduction in TNF levels” value in the experiment on TNF-α is 50%. Also, in the experiment on Sprague-Dawley rats [1], the “% Reduction of induced increase in Blood Glucose (mg/dl), STZ Diabetes” value is 72%. In addition, the “GFR (glomerular filtration rate)” value in the experiment on Sprague-Dawley rats [2] (1 hr clamp, after 60 min reperfusion, I/R + PBS 0.2 ± 0.1) was 0.5 ± 0.1 ml/mm. Also, the “RPF (renal plasma flow)” value in the experiment with Sprague-Dawley rats [2] (I/R + PBS 0.8 ± 0.2) is 2.3 ± 0.3 ml/mm. In the experiment with Sprague-Dawley rats [3] (day 14), the “% Attenuation of suspension-induced decrease: Soleus Citrate Synthase” value is 50% and the “% Attenuation of suspension-induced decrease: Tibia Bone Density” value turned out to be 50%. Further, in the experiment on Sprague-Dawley rats [3] (treadmill day 10), the “% Attenuation of suspension-induced decrease: Exercise Time” value is on record as 44% and the “% Attenuation of suspension-induced decrease: Maximal VO2” value came to 80%.
